From patent publication US8143263B2, “Therapeutic agents” (Astrazeneca AB, priority 2008, dated 2012) come the findings set out here.

This experiment concerns the target T1, recombinant human pancreatic GLK (Homo sapiens, UniProt P35557).
T1 sequence (P35557 1-465): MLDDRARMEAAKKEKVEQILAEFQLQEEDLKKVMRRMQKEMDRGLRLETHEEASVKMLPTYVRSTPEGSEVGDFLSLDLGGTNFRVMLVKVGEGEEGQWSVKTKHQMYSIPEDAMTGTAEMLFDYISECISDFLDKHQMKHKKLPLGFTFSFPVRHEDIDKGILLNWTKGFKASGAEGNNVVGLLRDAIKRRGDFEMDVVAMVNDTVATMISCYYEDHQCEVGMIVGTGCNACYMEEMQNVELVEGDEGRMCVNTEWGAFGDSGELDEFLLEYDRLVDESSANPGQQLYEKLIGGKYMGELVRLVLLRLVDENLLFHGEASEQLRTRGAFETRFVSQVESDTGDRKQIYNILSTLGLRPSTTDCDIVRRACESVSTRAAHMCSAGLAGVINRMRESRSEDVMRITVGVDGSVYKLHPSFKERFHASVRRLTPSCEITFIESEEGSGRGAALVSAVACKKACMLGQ
In words: biochemical.
The EC50 is the concentration needed to bring the measured effect to its halfway point. Take `O=C(Nc1ccc(Cl)cn1)[C@H](CN1CC(O)C1)Oc1ncnc2c1cnn2-c1ccccc1Cl` [Example 226, (2S)-2-[1-(2-chlorophenyl)pyrazolo[3,4-d]pyrimidin-4-yl]oxy-N-(5-chloro-2-pyridyl)-3-(3-hydroxyazetidin-1-yl)propanamide]: the EC50 came to 130 nM.

Take `Cc1ccc(NC(=O)[C@H](CO[C@H](C)CO)Oc2ncnc3c2cnn3-c2cscc2C)nc1` [Example 227, (2S)-3-[(1R)-2-hydroxy-1-methyl-ethoxy]-N-(5-methyl-2-pyridyl)-2-[1-(4-methyl-3-thienyl)pyrazolo[3,4-d]pyrimidin-4-yl]oxy-propanamide]: the EC50 was determined as 320 nM.

On to `O=C(Nc1ccccn1)[C@H](CN1CC(CO)C1)Oc1ncnc2c1cnn2-c1ccccc1Cl` [Example 228, (2S)-2-[1-(2-chlorophenyl)pyrazolo[3,4-d]pyrimidin-4-yl]oxy-3-[3-(hydroxymethyl)azetidin-1-yl]-N-(2-pyridyl)propanamide], for which the EC50 was determined as 460 nM.

On to `O=C(Nc1ccc(F)cn1)[C@H](CN1CC(O)C1)Oc1ncnc2c1cnn2-c1c(F)cccc1Cl` [Example 229, (2S)-2-[1-(2-chloro-6-fluoro-phenyl)pyrazolo[3,4-d]pyrimidin-4-yl]oxy-N-(5-fluoro-2-pyridyl)-3-(3-hydroxyazetidin-1-yl)propanamide], for which the EC50 was 110 nM.

For `O=C(Nc1ccc(F)cn1)[C@H](CN1CC(O)C1)Oc1ncnc2c1cnn2-c1c(Cl)cccc1Cl` [Example 230, (2S)-2-[1-(2,6-dichlorophenyl)pyrazolo[3,4-d]pyrimidin-4-yl]oxy-N-(5-fluoro-2-pyridyl)-3-(3-hydroxyazetidin-1-yl)propanamide], the EC50 worked out at 110 nM.

For the compound `C[C@H](CO)OC[C@H](Oc1ncnc2c1cnn2-c1c(Cl)cccc1C#N)C(=O)Nc1ccccn1` [Example 231, (2S)-2-[1-(2-chloro-6-cyano-phenyl)pyrazolo[3,4-d]pyrimidin-4-yl]oxy-3-[(1R)-2-hydroxy-1-methyl-ethoxy]-N-(2-pyridyl)propanamide], the EC50 worked out at 260 nM.

For `Cc1ccc(NC(=O)[C@H](CO[C@H](C)CO)Oc2ncnc3c2cnn3-c2ncccc2Cl)nc1` [Example 232, (2S)-2-[1-(3-chloro-2-pyridyl)pyrazolo[3,4-d]pyrimidin-4-yl]oxy-3-[(1R)-2-hydroxy-1-methyl-ethoxy]-N-(5-methyl-2-pyridyl)propanamide], the EC50 worked out at 540 nM.

As to `O=C(Nc1ccccn1)[C@H](CN1CC(O)C1)Oc1ncnc2c1cnn2-c1c(Cl)cccc1Cl` [Example 233, (2S)-2-[1-(2,6-dichlorophenyl)pyrazolo[3,4-d]pyrimidin-4-yl]oxy-3-(3-hydroxyazetidin-1-yl)-N-(2-pyridyl)propanamide], the EC50 came out at 210 nM.

Take `N#Cc1ccc(NC(=O)[C@H](CN2CC(O)C2)Oc2ncnc3c2cnn3-c2c(Cl)cccc2Cl)nc1` [Example 234, (2S)—N-(5-cyano-2-pyridyl)-2-[1-(2,6-dichlorophenyl)pyrazolo[3,4-d]pyrimidin-4-yl]oxy-3-(3-hydroxyazetidin-1-yl)propanamide]: the EC50 was 210 nM.

In the case of `N#Cc1ccc(NC(=O)[C@H](COCCO)Oc2ncnc3c2cnn3-c2c(Cl)cccc2Cl)nc1` [Example 235, (2S)—N-(5-cyano-2-pyridyl)-2-[1-(2,6-dichlorophenyl)pyrazolo[3,4-d]pyrimidin-4-yl]oxy-3-(2-hydroxyethoxy)propanamide], the EC50 was 400 nM.

`C[C@H](CO)OC[C@H](Oc1ncnc2c1cnn2-c1c(C#N)cccc1C#N)C(=O)Nc1ccc(Cl)cn1` [Example 236, (2S)—N-(5-chloro-2-pyridyl)-2-[1-(2,6-dicyanophenyl)pyrazolo[3,4-d]pyrimidin-4-yl]oxy-3-[(1R)-2-hydroxy-1-methyl-ethoxy]propanamide]: the EC50 was found to be 740 nM.

On to `N#Cc1cccc(Cl)c1-n1ncc2c(O[C@@H](COCCO)C(=O)Nc3ccc(F)cn3)ncnc21` [Example 237, (2S)-2-[1-(2-chloro-6-cyano-phenyl)pyrazolo[3,4-d]pyrimidin-4-yl]oxy-N-(5-fluoro-2-pyridyl)-3-(2-hydroxyethoxy)propanamide], for which the EC50 amounted to 470 nM.

Consider `N#Cc1cccc(Cl)c1-n1ncc2c(O[C@@H](COCCO)C(=O)Nc3ccccn3)ncnc21` [Example 238, (2S)-2-[1-(2-chloro-6-cyano-phenyl)pyrazolo[3,4-d]pyrimidin-4-yl]oxy-3-(2-hydroxyethoxy)-N-(2-pyridyl)propanamide], for which the EC50 stood at 420 nM.

In the case of `Cc1cnc(NC(=O)[C@H](CN2CC(O)C2)Oc2ncnc3c2cnn3-c2c(Cl)cccc2C#N)cn1` [Example 239, (2S)-2-[1-(2-chloro-6-cyano-phenyl)pyrazolo[3,4-d]pyrimidin-4-yl]oxy-3-(3-hydroxyazetidin-1-yl)-N-(5-methylpyrazin-2-yl)propanamide], the EC50 was found to be 490 nM.

For the compound `N#Cc1cccc(Cl)c1-n1ncc2c(O[C@@H](CN3CC(O)C3)C(=O)Nc3ccc(Cl)cn3)ncnc21` [Example 240, (2S)-2-[1-(2-chloro-6-cyano-phenyl)pyrazolo[3,4-d]pyrimidin-4-yl]oxy-N-(5-chloro-2-pyridyl)-3-(3-hydroxyazetidin-1-yl)propanamide], the EC50 was determined as 450 nM.

In the case of `O=C(Nc1ccccn1)[C@H](CN1CC(O)C1)Oc1ncnc2c1cnn2-c1ncccc1Cl` [Example 241, (2S)-2-[1-(3-chloro-2-pyridyl)pyrazolo[3,4-d]pyrimidin-4-yl]oxy-3-(3-hydroxyazetidin-1-yl)-N-(2-pyridyl)propanamide], the EC50 was found to be 350 nM.

With `N#Cc1cccc(Cl)c1-n1ncc2c(O[C@@H](CN3CC(O)C3)C(=O)Nc3ccc(F)cn3)ncnc21` [Example 242, (2S)-2-[1-(2-chloro-6-cyano-phenyl)pyrazolo[3,4-d]pyrimidin-4-yl]oxy-N-(5-fluoro-2-pyridyl)-3-(3-hydroxyazetidin-1-yl)propanamide], the EC50 amounted to 220 nM.

In the case of `O=C(Nc1ccc(F)cn1)[C@H](CN1CC(O)C1)Oc1ncnc2c1cnn2-c1ncccc1Cl` [Example 243, (2S)-2-[1-(3-chloro-2-pyridyl)pyrazolo[3,4-d]pyrimidin-4-yl]oxy-N-(5-fluoro-2-pyridyl)-3-(3-hydroxyazetidin-1-yl)propanamide], the EC50 was determined as 570 nM.

As to `O=C(Nc1ccc(F)cn1)[C@H](COCCO)Oc1ncnc2c1cnn2-c1c(F)cccc1Cl` [Example 244, (2S)-2-[1-(2-chloro-6-fluoro-phenyl)pyrazolo[3,4-d]pyrimidin-4-yl]oxy-N-(5-fluoro-2-pyridyl)-3-(2-hydroxyethoxy)propanamide], the EC50 came out at 330 nM.

Regarding `C[C@H](CO)OC[C@H](Oc1ncnc2c1cnn2-c1ccccc1Cl)C(=O)Nc1ccc(F)cn1` [Example 245, (2S)-2-[1-(2-chlorophenyl)pyrazolo[3,4-d]pyrimidin-4-yl]oxy-N-(5-fluoro-2-pyridyl)-3-[(1R)-2-hydroxy-1-methyl-ethoxy]propanamide], the EC50 was determined as 470 nM.

Regarding `C[C@H](CO)OC[C@H](Oc1ncnc2c1cnn2-c1c(Cl)cccc1C#N)C(=O)Nc1ccc(F)cn1` [Example 246, (2S)-2-[1-(2-chloro-6-cyano-phenyl)pyrazolo[3,4-d]pyrimidin-4-yl]oxy-N-(5-fluoro-2-pyridyl)-3-[(1R)-2-hydroxy-1-methyl-ethoxy]propanamide], the EC50 was determined as 220 nM.
